Measurements published in ChEMBL document CHEMBL3745636, “Dibenz[b,f]oxepin and Antimycobacterial Chalcone Constituents of Empetrum nigrum” (J Nat Prod, 2015).
Converted amounts (≈) assume the structure as drawn.

Columns and labels:
[1] = tested on: HEK293; experiment: Cytotoxicity against human HEK293 cells assessed as cell viability after 24 hrs by cell titer-blue assay; type: cell-based; details: HEK293, 24 h
[2] = tested on: Mycobacterium tuberculosis; experiment: Antimycobacterial activity against Mycobacterium tuberculosis H37Ra ATCC 25177 assessed as growth inhibition after 24 to 168 hrs by microplate resazurin assay; type: functional, organism-based

SMILES | IC50 [1] | IC50 [2] | MIC90 [2]
O=C(/C=C/c1ccccc1)c1ccc(O)cc1O [2',4'-DIHYDROXYCHALCONE] | 109 µM | 23.8 µM | 104 µM (≈ 25 µg/mL)
COc1cc(CCc2ccccc2O)cc(OC)c1OC | 113 µM | 179 µM | 694 µM (≈ 200 µg/mL)
COc1cc2c(c(O)c1OC)Oc1ccccc1CC2 | 355 µM | 105 µM | 367 µM (≈ 99.9 µg/mL)
O=C(CCc1ccccc1)c1ccc(O)cc1O | 249 µM | 32.8 µM | 206 µM (≈ 49.9 µg/mL)
COc1c(O)cc2c(c1OC)Oc1ccccc1CC2 | 167 µM | 94.4 µM | 367 µM (≈ 99.9 µg/mL)
COc1c(O)cc2c(c1OC)-c1c(O)cccc1CC2 | 289 µM | 113 µM | 734 µM (≈ 200 µg/mL)
CC1(C)CC[C@]2(CO)CC[C@]3(C)C(=CC[C@@H]4[C@@]5(C)CC[C@H](O)C(C)(C)[C@@H]5CC[C@]43C)[C@@H]2C1 [ERYTHRODIOL] | 613 µM | 157 µM | > 903 µM
COc1cc(CCc2ccccc2O)cc(O)c1OC | 298 µM | 900 µM | > 1460 µM
CC1(C)CC[C@]2(C(=O)O)CC[C@]3(C)C(=CC[C@@H]4[C@@]5(C)CC[C@H](O)C(C)(C)[C@@H]5CC[C@]43C)[C@@H]2C1 [OLEANOLIC_ACID] | 329 µM | 214 µM | > 876 µM
